Reference: patent publication US4093734A, “Amino-benzoic acid amides” (Boehringer Ingelheim GmbH, priority 1975, dated 1978)
Structures can show the parent of a compound that is named as a salt.

Key:
[1] = system: hindlimb tonic extensor component of the maximal seizure pattern; assay: Anticonvulsive activity in mice (maximal electroshock seizure); assay type: in vivo; conditions: Mus musculus, po, p.o.
Experimental: Male mice with body weights between 20 and 26 gm were used as experimental animals. They were allowed free access to food (Altromin®) and water up to one hour before administration of the test compound. Tests were carried out by using the maximal electroshock seizure pattern[Swinyard, Brown and Goodman, J. Pharmacol. exp. Ther. 106, 319 (1952)]. The electroshock apparatus was constructed according to Woodbury and Davenport […]. The electric impulses (50 Hz A.C., 50 mA, 0.2 sec) were delivered via steel ball electrodes covered with buckskin and moistened with 0.9% sodium chloride solution placed on the heads and over the eyes of the mice. The test is a measure of the ability of anticonvulsive drugs to abolish the hindlimb tonic extensor component of the maximal seizure pattern induced by electric stimulation. The test compound was administered either as the free base or as the hydrochloride. The free base was suspended in 1% tylose, and the hydrochloride was dissolved in distilled water. […] Control groups received only the suspension agent or solvent orally. 30, 150 and 300 minutes after administration all animals were shocked.

[2] = system: drinking frequency of thirsty animals; assay: Anxiolytic activity (drinking frequency of thirsty naive rats, electro-shock); assay type: in vivo; conditions: 10 mgm/kg orally, one hour before testing; for Shocks/animal, Treated animals: 3-minute session; for Shocks/animal, Difference (treated animals vs controls): ^+ significant difference compared with control group, (A, C, H, I, K), ° difference compared with control group, p >0.1 (B, D, E, F, J), G unmarked
Experimental: In their experiments, the drinking frequency of thirsty animals served as a measure for anxiety-relieving effects. Female rats with body weights between 150 and 170 gm were used as experimental animals. Food was available at all times, whereas they were deprived of water for 48 hours prior to the test session. The test apparatus was an opaque plastic box (24 × 24 × 22 cm), provided with a plexiglass cover and a […] floor. The metal drinking tube of a 250 ml-bottle covered with a hard plastic projected 2 cm from the wall into the box, the tube being attached to one side at a height of 6.5 cm. A piece of 0.2 cm at the tip of the tube was not plastic-covered. An electrical circuit was connected between the tube and the grid floor. Whenever a rat closed the circuit by licking the tube, each lick was counted electronically. At every 20th lick the animal received an electro-shock (40 V, 10 mA A.C.) via the tube ending and the grid. After the first 20 licks a time-counter was switched on, finishing the test after 3 minutes. Within this period the drinking frequency of each animal was recorded as the number of shocks delivered during the 3-minute session. […] The control groups received only the solvent or suspension agent. Statistical comparisons were made, using the Mann-Whitney-U-test (Siegel: Nonparametric Statistics, McGraw-Hill, 1956).

[3] = Acute toxicity in the mouse after intravenous administration; conditions: in vivo, i.v., mice, observed 14 days
Experimental: 5 female and 5 male mice per dose, with body weights between 20 and 26 gm, served as test animals. The animals had access to food and drinking water ad libitum.
Compounds D, E, I and J were dissolved in distilled water, compounds A, B and C in 0.2% tartaric acid, and compound G in 15% propylene glycol.
The injected volume at the dosage level of 50 mgm/kg i.v. amounted to 0.1 ml/10 gm of animal. When the dosage was increased or diminished by 10 mgm/kg i.v., the volume was increased or diminished by […], respectively. Control groups of 10 animals each were only treated with the solvent.
The LD50 -values were determined according to the graphic-statistical method of Litchfield and Wilcoxon [(J. Pharmacol. exp. Therap. 96, 99, (1949)].

[4] = 0.5 h, 30 min. after administration
[5] = 2.5 h, 150 min. after administration
[6] = 5 h, 300 min. after administration

| SMILES | ED50 [1, 4] [mg/kg] | ED50 [1, 5] [mg/kg] | ED50 [1, 6] [mg/kg] | Shocks/animal, Treated animals [2] [Shocks/animal] | Shocks/animal, Difference (treated animals vs controls) [2] [Shocks/animal] | LD50 at 336 h [3] [mg/kg] |
| --- | --- | --- | --- | --- | --- | --- |
| Cl.Nc1ccc(C(=O)NC2CCCCC2)c(Cl)c1 [F, 4-amino-2-chloro-N-cyclohexyl-benzoic acid amide hydrochloride] | 38 | 50 | 116 | 5.3 | 2.0 | – |
| CCN1CCCC1CNC(=O)c1cc(C)cc(Cl)c1N (stereo not drawn) [A, N-[1-ethyl-pyrrolidyl-(2)-methyl]-2-amino-3-chloro-5-methyl-benzoic acid amide] | 28 | 60 | 102 | 7.1 | 3.6 | 28.6 |
| CCN1CCCC1CNC(=O)c1cc(Cl)cc(C(F)(F)F)c1N (stereo not drawn) [I, N-[1-Ethyl-pyrrolidyl-(2)-methyl]-2-amino-5-chloro-3-trifluoromethyl-benzoic acid amide hydrochloride] | 72 | 100 | 124 | 7.5 | 4.6 | 52.5 |
| CCN1CCCC1CNC(=O)c1cc(Br)cc(Cl)c1N (stereo not drawn) [E, N-[1-ethyl-pyrrolidyl-(2)-methyl]-2-amino-5-bromo-3-chloro-benzoic acid amide hydrochloride] | 44 | 68 | 109 | 7.5 | 4.5 | 25 |
| CN(C(=O)c1ccc(N)cc1Cl)C1CCCCC1 [H, 4-amino-2-chloro-N-cyclohexyl-N-methyl-benzoic acid amide] | 200 | 155 | 200 | 7.8 | 4.6 | – |
| Nc1c(C(=O)NCc2cccnc2)cc(Cl)cc1C(F)(F)F [K, 2-amino-5-chloro-N-[pyridyl-(3)-methyl]-3-trifluoromethyl-benzoic acid amide] | > 200 | 70 | 73 | 9.6 | 6.1 | – |
| CCN1CCCC1CNC(=O)c1cc(F)c(N)c(Cl)c1 (stereo not drawn) [Compound C, N-[1-ethyl-pyrrolidyl-(2)-methyl]-4-amino-3-chloro-5-fluoro-benzoic acid amide] | 37 | 50 | 128 | 6.7 | 3.9 | 28.5 |
| CCN1CCCC1CNC(=O)c1cc([N+](=O)[O-])cc(Cl)c1N (stereo not drawn) [B, N-[1-ethyl-pyrrolidyl-(2)-methyl]-2-amino-3-chloro-5-nitro-benzoic acid amide] | 78 | 130 | 178 | 4.9 | 1.2 | 39 |
| Cl.Nc1ccc(C(=O)NCc2ccccc2)c(Cl)c1 [G, 4-amino-N-benzyl-2-chloro-benzoic acid amide hydrochloride] | 68 | 133 | 200 | 7.1 | 3.8 | 48 |
| CCN1CCCC1CNC(=O)c1cc(Cl)cc(Cl)c1N (stereo not drawn) [D, N-[1-ethyl-pyrrolidyl-(2)-methyl]-2-amino-3,5-dichloro-benzoic acid amide hydrochloride] | 35 | 54 | 109 | 6.8 | 3.1 | 31.5 |
| CCN1CCCC1CNC(=O)c1cc(Cl)c(N)c(C(F)(F)F)c1 (stereo not drawn) [J, N-[1-ethyl-pyrrolidyl-(2)-methyl]-4-amino-3-chloro-5-trifluoromethyl-benzoic acid amide hydrochloride] | 62 | 64 | 82 | 7.2 | 3.6 | 33.5 |
